We go through 3 compounds from patent US20100280046A1, “Methods and Compositions for Treating Prostate Cancer, Benign Prostatic Hypertrophy, Polycystic Ovary Syndrome and Other Conditions” (DIOBEX, INC., priority 2006, published 2010).

“Also recorded” adds a separate entry of the source.

The test system of series [1] is plasma testosterone. The experiment in a line: Plasma testosterone in rats four hours after oral gavage of increasing dosage (FIG. 1). The series is classed as in vivo. Conditions: Sprague-Dawley rats, in olive oil. As to the method: The concentration of testosterone in the plasma of Sprague-Dawley rats was determined four hours after delivery by oral gavage of increasing dosage of the racemate or of the indicated enantiomer.
The effect of ketoconazole and the ketoconazole enantiomers on testosterone levels in the plasma of Sprague Dawley rats was determined. […] To generate the results shown in FIG. 1, fifteen groups (ten per group) of rats were used. The rats were maintained on a 14/10 hour light/dark cycle and allowed free access to food and water. Each rat was dosed with the indicated drug (or vehicle) at the indicated dosage via a gastric tube. All of the rats were dosed between 2.00 and 3.00 pm and were sacrificed four hours later (between 6.00 and 7.00 pm). Plasma was prepared and the concentration of testosterone determined by an enzyme linked immuno assay (ELISA).

The test system of series [2] is plasma testosterone. As to the kind of experiment: Time course of depression of plasma testosterone in rats after 200 mg/kg (FIG. 2). The series is classed as in vivo. Conditions: Sprague-Dawley rats, 200 mg/kg oral gavage, indicated times after dosing. As to the method:
The rats were maintained and dosed as described above. Plasma was prepared at the indicated times after dosing and the concentration of testosterone in the plasma determined by ELISA.

For series [3], the system named is 17,20 lyase. Conditions: cited from earlier work.
The target of series [4] is T1, 17α hydroxylase (Homo sapiens, UniProt P05093).
T1 sequence (P05093 1-508): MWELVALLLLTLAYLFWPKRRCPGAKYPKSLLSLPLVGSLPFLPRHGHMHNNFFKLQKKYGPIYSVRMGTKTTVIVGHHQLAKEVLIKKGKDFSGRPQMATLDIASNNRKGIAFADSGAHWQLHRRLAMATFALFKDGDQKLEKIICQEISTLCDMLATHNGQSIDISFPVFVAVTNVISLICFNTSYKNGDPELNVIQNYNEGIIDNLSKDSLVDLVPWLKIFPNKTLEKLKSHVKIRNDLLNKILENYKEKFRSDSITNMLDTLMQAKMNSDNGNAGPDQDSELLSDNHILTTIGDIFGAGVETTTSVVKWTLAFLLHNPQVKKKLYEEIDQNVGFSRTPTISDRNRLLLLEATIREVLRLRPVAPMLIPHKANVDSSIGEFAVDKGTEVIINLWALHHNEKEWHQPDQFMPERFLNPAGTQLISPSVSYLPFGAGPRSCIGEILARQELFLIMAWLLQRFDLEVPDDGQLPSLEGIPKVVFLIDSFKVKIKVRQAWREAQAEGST
Conditions: cited from earlier work.

The conditions of series [5]: ketoconazole treated patients; cited from earlier work.
The conditions of series [6]: isolated guinea pig hearts; cited from earlier work.
For series [7] the following is noted: accelerated in the presence of water and elevated temperatures; cited from earlier work.
Series [8] in a line: Plasma levels of the two ketoconazole enantiomers in patients after fourteen daily doses (FIG. 4, FIG. 5). It counts as in vivo, humans. As to conditions: for hepatic extraction (from the plasma into the liver): inferred from plasma profiles in patients; for plasma level (pharmacokinetic profile) of the enantiomer after racemic ketoconazole: 400 mg racemic ketoconazole (200 mg 2S,4R and 200 mg 2R,4S) once per day. How it is done: Each patient was given the appropriate drug once per day in the evening. After fourteen daily doses the level of each of the two enantiomers present in the plasma of the patients was determined at the indicated time points following the last dose of drug.
Assays were established and validated using isolated and purified enantiomers. […] Solid phase extraction (SPE) and HPLC/MS/MS were used to determine the concentration of the enantiomers 2R,4S and 2S,4R, of Ketoconzaole from human plasma. 2R,4S and 2S,4R Ketoconzaole were extracted from the plasma sample using SPE, 96 well plates packed with a reversed phase C8 extraction beds from Varian (Lake Forest, Calif.). An aliquot of the extract was injected onto a HPLC/MS/MS triple quadrupole mass spectrometer (Sciex API3000). A Chiralpak AD-H, 5 μm HPLC column (2.1×150 mm) from Chiral Technologies (West Chester, Pa.) preceded by an AD-H guard column (0.4×1.0 cm) were used to separate 2R,4S and 2S,4R Ketoconzaole and the internal standard terconazole. The peak area of multiple product ions (531.4→82.2, […], and 531.4→489.5) of the enantiomers of Ketoconzaole were summed and measured against the peak area of the product ion of the internal standard (terconazole, 534.5-÷ 219.3). Quantitation was performed using 1/x^2 weighted linear least squares regression line generated from similarly extracted plasma calibration samples ranging from 5 to 1000 ng/mL. All plasma was preserved with K3EDTA.

For series [9] the following is noted: oral racemic ketoconazole, healthy subjects; cited from earlier work.
The mark [10] stands for this setting: patients, after fourteen daily doses.

Turning to `CC(=O)N1CCN(c2ccc(OCC3COC(Cn4ccnc4)(c4ccc(Cl)cc4Cl)O3)cc2)CC1` (racemic) [racemic ketoconazole, 1-acetyl-4-[4-[[2-(2,4-dichlorophenyl)-2-[(1H-imidazol-1-yl)-methyl]-1,3-dioxolan-4-yl]methoxy]phenyl]piperazine], the “lowering of plasma testosterone” value in series [1] is given as “dose dependent effect”. In addition, in [2], the “time course of depression of plasma testosterone” value is listed as “testosterone levels recover following dosing”. Further, the “potency toward 17,20 lyase” value in [3] was “inhibit”. Also, the “inhibition of 17α hydroxylase” value in [4] is listed as “inhibit”. Moreover, the “level of liver specific enzymes in the serum” value in series [5] is given as “increase in these enzymes has been noted”. Also, the “risk of cardiac arrhythmia” value in series [6] is “may be associated with an increased risk of cardiac arrhythmia”. Further, the “degradation (oxidation)” value in series [7] was “can undergo degradation (oxidation)”.
As for `CC(=O)N1CCN(c2ccc(OC[C@H]3CO[C@](Cn4ccnc4)(c4ccc(Cl)cc4Cl)O3)cc2)CC1` (single isomer, unassigned) [2R,4S enantiomer, reference compound], in series [8], the “hepatic extraction (from the plasma into the liver)” value is recorded as “more efficient extraction”. Besides, in [8] (setting [10]), the “plasma level (pharmacokinetic profile) of the enantiomer after racemic ketoconazole” value was “approximately one third of the plasma concentration of the 2S,4R enantiomer”.
With `CC(=O)N1CCN(c2ccc(OC[C@@H]3CO[C@@](Cn4ccnc4)(c4ccc(Cl)cc4Cl)O3)cc2)CC1` [2S,4R enantiomer], the “lowering of plasma testosterone” value in series [1] was “more effective at lowering testosterone than any either racemic ketoconazole or the 2R,4S enantiomer of ketoconazole; also recorded: significantly more efficacious than both the ketoconazole racemate and the other cis enantiomer (2R,4S)”. For the same compound, the “time course of depression of plasma testosterone” value in series [2] (200 mg/kg) is “more effective at lowering testosterone than either racemic ketoconazole or the other cis enantiomer present in racemic ketoconazole (2R,4S)”; in series [2] (listed as 2S,4R, 200 mg/kg) it was “significantly more efficacious than 2R,4S with respect to reducing testosterone levels”. Besides, in series [8], the “hepatic extraction (from the plasma into the liver)” value is given as “relatively low hepatic extraction”. Besides, the “plasma level (pharmacokinetic profile) of the 2S,4R enantiomer given alone” value in series [8] (patients, 200 mg 2S,4R enantiomer once per day, after fourteen daily doses) is “very similar when given alone; also recorded: approximately the same as the plasma level of the 2S,4R enantiomer when patients are given both 200 mg 2S,4R and 200 mg 2R,4S”. Also, the “plasma level (pharmacokinetic profile) of the enantiomer after racemic ketoconazole” value in [8] (setting [10]) is on record as “significantly greater than the pharmacokinetic profile of the 2R,4S enantiomer”. In addition, the “potency toward 17,20 lyase” value in series [3] is “more potent toward 17,20 lyase than is the other enantiomer 2R,4S”. Further, the “plasma level of the enantiomer after racemic ketoconazole” value in series [9] is “approximately three times greater than that of the 2R,4S enantiomer”.
